In brackets after ≈: the same amount, converted by molar mass.
Tested on: Mycobacterium tuberculosis
Assay: Antimycobacterial activity against Mycobacterium tuberculosis H37Rv after 2 weeks
Format: functional
Conditions: 336 h

SMILES	MIC [µg/mL]
COc1cc(/C=C/C(=O)NCCc2ccc(O)cc2)cc(OC)c1O [TRANS-N-SINAPOYLTYRAMINE]	> 100
COc1cc(/C=C/C(=O)NCCc2ccc(O)cc2)ccc1O [N-TRANS-FERULOYL TYRAMINE]	60 (≈ 191 µM)
CC[C@@H](CO)NCCN[C@@H](CC)CO [ETHAMBUTOL]	6.25 (≈ 30.6 µM)
COc1cc(/C=C/C(=O)NCCc2ccc(O)c(OC)c2)ccc1O	1.6 (≈ 4.66 µM)
CCCCCCCCCCCCC/C=C1/C(=O)O[C@](C)(OC)[C@@H]1O [LITSEAKOLIDE L]	25 (≈ 73.4 µM)
COc1cc(C2c3c(cc(OC)c(O)c3OC)C=C(C(=O)NCCc3ccc(O)cc3)C2C(=O)NCCc2ccc(O)cc2)cc(OC)c1O (configuration not stated)	> 100
COc1cc(OC)c(C[C@@H](O)Cc2ccc(OC)c(OC)c2)c(OC)c1 [HYPOPHAOL]	100 (≈ 276 µM)
